The numbers were not newly measured in US10507179B2, “Formulations of levosimendan for intravenous administration as infusion or injection and of infusion concentrate” (CARINOPHARM GmbH, priority 2015, dated 2019), which cites them from elsewhere.

In brackets after ≈: the same amount, converted by molar mass. Several values for one entry are separate records, joined by “and”; a condition that tells them apart may be missing. Equal entries are not always repeated.

Assay in series [1]: not given
This is another data set of the same source.

The term pKa denotes the negative logarithm of the acid dissociation constant. As usually defined, the solubility is how much of the substance goes into solution per volume. On to `C[C@@H]1CC(=O)NN=C1c1ccc(NN=C(C#N)C#N)cc1` [Levosimendan, (−)-[[4-(1,4,5,6-tetrahydro-4-methyl-6-oxo-3-pyridazi-nyl)phenyl]hydrazono]propane dinitrile], for which the pKa was 6.3 and 6.26. Further, in series [1] (pH value of 2), the solubility is 20 µg/mL (≈ 71.4 µM). In series [1] (physiological pH), the “stability in aqueous solutions” value is “not stable”. Further, the “solubility in phosphate buffer” value in series [1] (room temperature, physiological pH of 7.4) is 400 µg/mL (≈ 1430 µM).
